The structures appear in SMILES notation.

The target of data set [1] is T1, human recombinant D1 receptor (Homo sapiens, UniProt P21728).
T1 construct: expressed in transfected cells; host or cells: HEK293
The experiment in a line: D1 antagonistic activity test (LANCE cAMP, antagonism of dopamine-induced cAMP production in HEK293 cells). The settings on record: HEK293 cells expressing human recombinant D1 receptor; test concentration 0.1 nM to 10000 nM; read-out: D1 Antagonistic Activity (IC50, nmol/L). Format: cell-based. The procedure: • 1) D1 antagonistic activity test
The D1 antagonism of the compound was evaluated by testing the antagonistic action of the compounds against dopamine on the induction of cAMP production in HEK293 cells. The cAMP concentration test was performed according to the method described in the kit instructions. The test concentration of the compound was 0.1 nM to 10000 nM. SCH23390 was used as a positive control. The IC50 was calculated by Excelfit software.
A general note: In TR-FRET formats the signal depends on donor and acceptor labels being close together.

The subject of data set [2] is PCP-induced high spontaneous activity in mice. The experiment in a line: PCP-induced high spontaneous activity test in mice. Type of data set: in vivo, Male ICR mice. The procedure:
PCP (phencylidine) was dissolved in physiological saline to prepare a 7 mg/kg solution. The test compound was formulated with a 0.5% CMC-Na solution to a solution with suitable concentration, ready-to-use. Male ICR mice were 18-22 g. Mice were randomly divided into a solvent control group, a model control group, a positive control group, and each test drug group during the test. There were 8 mice in each group. Mice in each group were given each test drug by gavage. 45 minutes after the test drug was administered, mice were injected with a PCP (7 mg/kg) solution intraperitoneally. The spontaneous, open field video analysis system was used to record the mouse movement trajectory within 45 min after administration of test drug or saline, and then the mouse movement trajectory within 75 min after PCP administration. Spontaneous, open field video analysis system was used to analyze the mouse's movement trajectory, and the total distance of the movement of the mice in each group was counted. The result was expressed as mean±SD. Results were analyzed by one-way analysis of variance.

The target in data set [3] is T2, human recombinant D2 receptor (Homo sapiens, UniProt P14416).
T2 construct: expressed in transfected cells; host or cells: HEK293
The experiment in a line: D2 antagonistic activity test (LANCE cAMP, antagonism of dopamine inhibition of cAMP production in HEK293 cells). Type of data set: cell-based. The settings on record: HEK293 cells expressing human recombinant D2 receptor; test concentration 0.1 nM to 10000 nM; read-out: D2 Antagonistic Activity (IC50, nmol/L). The procedure:
LANCE™ cAMP 384 Kit (PerkinElmer, USA) was used to test the antagonism of the compound against the D1 receptor using the HEK293 cells expressing human recombinant D1 receptor. The D1 antagonism of the compound was evaluated by testing the antagonistic action of the compounds against dopamine on the induction of cAMP production in HEK293 cells. The cAMP concentration test was performed according to the method described in the kit instructions. The test concentration of the compound was 0.1 nM to 10000 nM. SCH23390 was used as a positive control. The IC50 was calculated by Excelfit software. The test results of some compounds were shown in Table 1. • 2) D2 antagonistic activity test LANCE™ cAMP 384 Kit (PerkinElmer, USA) was used to test the antagonism of the compound against the D2 receptor using the HEK293 cells expressing human recombinant D2 receptor. The D2 antagonism of the compound was evaluated by testing the antagonistic action of the compounds against dopamine on the inhibition of cAMP production in HEK293 cells. The cAMP concentration test was performed according to the method described in the kit instructions. The test concentration of the compound was 0.1 nM to 10000 nM. Risperidone was used as a positive control. The IC50 was calculated by Excelfit software. The test results of some compounds were shown in Table 1 (ND means the test was not performed).

For data set [4], the target named is T3, human recombinant 5-HT1A receptor (Homo sapiens, UniProt P08908).
T3 construct: expressed in transfected cells; host or cells: HEK293
T3 sequence (P08908 1-422): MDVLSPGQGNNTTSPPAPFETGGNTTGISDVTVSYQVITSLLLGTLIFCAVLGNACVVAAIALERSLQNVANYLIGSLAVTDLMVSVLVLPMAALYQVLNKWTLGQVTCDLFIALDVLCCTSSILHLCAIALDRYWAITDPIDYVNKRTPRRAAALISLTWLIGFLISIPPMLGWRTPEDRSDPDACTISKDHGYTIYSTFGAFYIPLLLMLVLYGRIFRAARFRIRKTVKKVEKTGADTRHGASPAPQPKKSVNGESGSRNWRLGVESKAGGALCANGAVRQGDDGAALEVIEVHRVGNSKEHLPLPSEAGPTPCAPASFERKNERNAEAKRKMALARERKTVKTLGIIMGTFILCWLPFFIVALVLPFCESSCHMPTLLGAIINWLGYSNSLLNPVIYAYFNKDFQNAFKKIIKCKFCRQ
The experiment in a line: 5-HT1A agonistic activity test (LANCE cAMP, inhibition of cAMP production in HEK293 cells). Type of data set: cell-based. The settings on record: HEK293 cells expressing human recombinant 5-HT1A receptor; test concentration 0.1 nM to 10000 nM; read-out: 5-HT1A Agonistic Activity (EC50, nmol/L). The procedure:
• 3) 5-HT1A agonistic activity test
LANCE™ cAMP 384 Kit (PerkinElmer, USA) was used to test the agonistic effect of the compound on 5-HT1A receptor using the HEK293 cells expressing human recombinant 5-HT1A receptor. The 5-HT1A agonistic effect of the compound was evaluated by testing the inhibitory effect of the compound on cAMP production in HEK293 cells. The cAMP concentration test was performed according to the method described in the kit instructions. The test concentration of the compound was 0.1 nM to 10000 nM. 8-OH-DPAT was used as a positive control. The EC50 was calculated by Excelfit software.

Data set [5] concerns insomnia induced by injection with 4-Chlorophenylalanine (PCPA) in rats. The experiment in a line: Sedative and hypnotic effects, PCPA-induced insomnia model in rats treated with sodium pentobarbital. The settings on record: for sleep time: FIG. 2. Format: in vivo, Wistar rats. The procedure: The sedative and hypnotic effects of Example 60 were evaluated using a model of insomnia induced by injection with 4-Chlorophenylalanine (PCPA) in rats.
Dosage and method of administration: PCPA was administered at a dose of 150 mg/kg. […] was administered by a single intraperitoneal injection at 72 hours before the experiment in all Wistar rats. The diazepam group (DI) was administered at a dose of 2 mg/kg and 4 mg/kg, a single intraperitoneal injection; the test drug group was administered at a dose of 1 mg/kg and 3 mg/kg, a single intragastric administration; sodium pentobarbital was administered at a dose of 25 mg/kg, a single intraperitoneal injection. The administration volume was 10 ml/kg. On the day of the test, the model group was given sodium pentobarbital 30 minutes after the same volume of physiological saline was given; the DI group was given sodium pentobarbital 30 minutes after DI was administered; the test drug group was given sodium pentobarbital 60 minutes after the drug was administered.lndex observation: After the administration of sodium pentobarbital, the rats' response was closely observed. The time from the administration to 1 minute after the righting reflex disappeared is the sleep latency. The time from 1 minute after the righting reflex disappeared to the point that the righting reflex returned is sleep time.

A short description of data set [6]: Metabolism of l-stepholidine (statement only, no method).

T2 sequence (P14416 whole entry): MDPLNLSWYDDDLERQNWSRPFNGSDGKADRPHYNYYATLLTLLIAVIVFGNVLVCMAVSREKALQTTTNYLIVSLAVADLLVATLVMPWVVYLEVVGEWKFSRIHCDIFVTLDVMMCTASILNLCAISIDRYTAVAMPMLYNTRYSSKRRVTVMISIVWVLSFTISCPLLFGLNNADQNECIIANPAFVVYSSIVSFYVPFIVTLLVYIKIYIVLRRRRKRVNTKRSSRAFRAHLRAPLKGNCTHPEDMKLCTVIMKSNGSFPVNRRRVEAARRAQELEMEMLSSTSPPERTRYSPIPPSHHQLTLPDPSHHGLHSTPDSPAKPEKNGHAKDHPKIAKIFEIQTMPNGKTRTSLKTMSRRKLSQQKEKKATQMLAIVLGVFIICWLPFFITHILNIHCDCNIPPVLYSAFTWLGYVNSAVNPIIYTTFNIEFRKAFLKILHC
T1 sequence (P21728 whole entry): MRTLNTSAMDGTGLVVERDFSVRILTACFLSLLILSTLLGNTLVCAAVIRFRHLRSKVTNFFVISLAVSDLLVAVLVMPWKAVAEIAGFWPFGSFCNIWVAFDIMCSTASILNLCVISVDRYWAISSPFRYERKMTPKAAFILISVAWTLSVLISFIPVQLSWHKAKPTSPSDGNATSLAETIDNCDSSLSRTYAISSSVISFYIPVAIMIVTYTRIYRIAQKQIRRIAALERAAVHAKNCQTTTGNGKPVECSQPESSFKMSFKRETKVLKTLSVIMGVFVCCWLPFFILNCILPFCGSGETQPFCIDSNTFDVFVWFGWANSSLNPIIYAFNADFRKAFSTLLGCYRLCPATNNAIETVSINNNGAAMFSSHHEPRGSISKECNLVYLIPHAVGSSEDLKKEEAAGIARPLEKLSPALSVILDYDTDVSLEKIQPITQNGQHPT

As for `COc1cc2c(cc1OC)[C@@H]1Cc3ccc(OC)c(OCCO)c3CN1CC2` [Example 56, (S)-2,3,10-trimethoxy-9-hydroxyethoxy-6.8,13,13a-tetrahydro-5H-dibenzo[a,g] quinolizine], the figures for the IC50 in data set [1] and in data set [3] were 1050 nmol/L and 2800 nmol/L, respectively. Further, the “Effective Dose” value in data set [2] (dose by gavage that significantly reduces PCP (7 mg/kg ip) induced high spontaneous activity of mice vs model group) is 20 mg/kg. Further, the EC50 in data set [4] is 150 nmol/L.

In the case of `COc1cc2c(cc1NS(C)(=O)=O)[C@@H]1Cc3ccc(OC)c(OC)c3CN1CC2` [Example 60, (S)-2-methanesulfonylamino-3,9,10-trimethoxy-6,8,13,13a-tetrahydro-5H-dibenzo[a,g] quinolizine], the figures for the IC50 in data set [1] and in data set [3] were 525 nmol/L and 6.2 nmol/L, respectively. The sleep time result in data set [5] (1 mg/kg single intragastric administration, sodium pentobarbital 25 mg/kg ip 60 minutes later) is recorded as “significantly prolong”; in data set [5] (3 mg/kg single intragastric administration, sodium pentobarbital 25 mg/kg ip 60 minutes later) it was “prolong”. The sleep latency result in data set [5] (3 mg/kg single intragastric administration, sodium pentobarbital 25 mg/kg ip 60 minutes later, FIG. 1, *P<0.05 vs model group) is reported as “significantly reduce”. The “hypnotic effect (overall)” value in data set [5] (PCPA-induced insomnia rats, 1 and 3 mg/kg intragastric) is on record as “good hypnotic effect”.

Consider `COc1cc2c(cc1O)[C@@H]1Cc3ccc(O)c(OC)c3CN1CC2` [l-SPD, L-Stepholidine, reference compound], for which the IC50 in data set [1] came to 7.7 nmol/L; in data set [3], 37 nmol/L. Also, the “duration of effect / efficacy” value in data set [2] (oral, PCP-induced high spontaneous activity in mice) was “short duration of effect”. Further, the metabolism result in data set [6] was “fast metabolism”.
